From US10654854B2 (INTRA-CELLULAR THERAPIES, INC., priority 2016, dated 2020)
Counter-ions that a name gives are not always drawn.

Tests used:
[1] = Dynamic Vapour Sorption (DVS); format: physicochemical; details: for DVS total mass uptake: at 95 RH %; for hygroscopicity (assessment from DVS): from total mass uptake at 95 RH %; for DVS Hygroscopicity (%): scale-up synthesis batch
Protocol: Dynamic Vapour Sorption (DVS): The Dynamic Vapour Sorption studies are performed using a Surface Measurement Systems Ltd. DVS-1 No Video, equipment #2126. The sample is loaded into a balance pan, typically 20-30 mg, and equilibrated at 0% RH. After the material was dried, the RH is increased with 10% per step for 1 hour per increment, ending at 95% RH. After completion of the sorption cycle, the sample was dried using the same method. The software used for data collection is DVSWin v3.01 No Video. Data analysis is performed using DVS Standard Analysis Suite v6.3.0 (Standard).

[2] = hygroscopicity and stability of salt forms (salt screen); format: physicochemical; details: salt form
Protocol: In an effort to find new salts and polymorphs of ITI-007, an extensive salt screen was undertaken. […] Eventually, a toluenesulfonic acid addition salt (tosylate) was prepared, as described in WO 2009/114181, but no other stable salts were found. Finally, a major salt screen was carried out, wherein the free base compound was studied in different solvent systems and under different conditions, and then systematically screened using a selection of over 100 acids under different conditions and with different solvent, co-solvent and anti-solvent systems, to identify possible salt forms. Following extensive screening and experimentation, the following novel salts were discovered, characterized, and found to be reproducible and stable: oxalate, 4-aminosalicylate, and cyclamate.
(§1) Solubility of free base in various solvents is evaluated, and based on the results of the solubility range, suitable solvents are selected for the salt screen. The salt screen is divided into seven separate screens, using 90 different counter ions, six different solvents, and including four different crystallization methods, slurry experiments, cooling crystallization, evaporation and precipitation experiments. The counterions are selected based upon availability and potential suitability to form pharmaceutically acceptable acid addition salts. They include the class I, II and III acids identified in Stahl P. H., Wermuch C. G. (editors), Handbook of Pharmaceutical Salts, IUPAC (2008).

H1 histaminergic = H1 histaminergic (Homo sapiens, UniProt P35367); details: cited from earlier work
5-HT2C = molecular target: T1, 5-HT2C (Homo sapiens, UniProt P28335); details: cited from earlier work
T1 sequence (P28335 33-458): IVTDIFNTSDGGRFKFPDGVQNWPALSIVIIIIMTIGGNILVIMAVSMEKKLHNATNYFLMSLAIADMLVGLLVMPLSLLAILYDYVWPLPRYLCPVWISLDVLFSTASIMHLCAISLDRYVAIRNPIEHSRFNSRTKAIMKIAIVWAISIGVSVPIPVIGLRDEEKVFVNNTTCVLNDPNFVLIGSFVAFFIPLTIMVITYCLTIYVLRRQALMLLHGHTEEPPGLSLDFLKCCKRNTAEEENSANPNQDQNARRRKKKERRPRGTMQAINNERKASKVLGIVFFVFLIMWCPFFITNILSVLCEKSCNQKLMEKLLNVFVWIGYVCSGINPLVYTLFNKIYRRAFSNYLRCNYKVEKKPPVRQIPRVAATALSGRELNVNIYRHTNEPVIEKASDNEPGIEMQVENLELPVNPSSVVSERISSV

[3] = solubility of free base in water and organic solvents; format: physicochemical; details: free base form; in water and in many organic solvents
Protocol: as §1

muscarinic = details: cited from earlier work

Chain of H1 histaminergic (P35367 whole entry): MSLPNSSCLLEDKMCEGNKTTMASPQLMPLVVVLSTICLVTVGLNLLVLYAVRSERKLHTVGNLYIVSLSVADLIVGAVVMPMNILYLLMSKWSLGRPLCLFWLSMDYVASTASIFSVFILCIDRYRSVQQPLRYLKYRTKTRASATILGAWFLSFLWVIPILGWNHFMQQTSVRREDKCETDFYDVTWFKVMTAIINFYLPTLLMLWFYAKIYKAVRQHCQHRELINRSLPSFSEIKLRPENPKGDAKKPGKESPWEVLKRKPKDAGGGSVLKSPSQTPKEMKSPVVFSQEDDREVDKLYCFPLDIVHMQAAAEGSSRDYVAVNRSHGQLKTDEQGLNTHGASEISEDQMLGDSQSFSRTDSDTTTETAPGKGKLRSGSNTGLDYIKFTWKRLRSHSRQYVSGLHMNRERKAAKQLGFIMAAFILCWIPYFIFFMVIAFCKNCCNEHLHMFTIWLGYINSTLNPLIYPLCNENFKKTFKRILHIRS

DVS total mass uptake [1] [%]	hygroscopicity (assessment from DVS) [1]	DVS Hygroscopicity (%) [1] [%]	stability [2]	solubility [3]	DVS Hygroscopicity (%) ([1]; listed as FP-212 cyclamate salt)	SMILES	binding to receptors associated with cognitive and metabolic side effects (H1 histaminergic)	binding to receptors associated with cognitive and metabolic side effects (5-HT2C)	binding to receptors associated with cognitive and metabolic side effects (muscarinic)
5	moderately hygroscopic	5	stable			CN1CCN2c3c(cccc31)[C@@H]1CN(CCCC(=O)c3ccc(F)cc3)CC[C@@H]12 [4-aminosalicylate salt, 1-(4-fluoro-phenyl)-4-((6bR,10aS)-3-methyl-2,3,6b,9,10,10a-hexahydro-1H,7H-pyrido[3′,4′:4,5]pyrrolo[1,2,3-de]quinoxalin-8-yl)-butan-1-one]			
				poor solubility		CN1CCN2c3c(cccc31)[C@@H]1CN(CCCC(=O)c3ccc(F)cc3)CC[C@@H]12 [ITI-007, 1-(4-fluoro-phenyl)-4-((6bR,10aS)-3-methyl-2,3,6b,9,10,10a-hexahydro-1H,7H-pyrido[3′,4′:4,5]pyrrolo[1,2,3-de]quinoxalin-8-yl)-butan-1-one]	negligible binding	negligible binding	negligible binding
8	somewhat hygroscopic		stable		8	CN1CCN2c3c(cccc31)[C@@H]1CN(CCCC(=O)c3ccc(F)cc3)CC[C@@H]12 [cyclamate salt, 1-(4-fluoro-phenyl)-4-((6bR,10aS)-3-methyl-2,3,6b,9,10,10a-hexahydro-1H,7H-pyrido[3′,4′:4,5]pyrrolo[1,2,3-de]quinoxalin-8-yl)-butan-1-one]			
5	moderately hygroscopic	5	stable			CN1CCN2c3c(cccc31)[C@@H]1CN(CCCC(=O)c3ccc(F)cc3)CC[C@@H]12 [oxalate salt, 1-(4-fluoro-phenyl)-4-((6bR,10aS)-3-methyl-2,3,6b,9,10,10a-hexahydro-1H,7H-pyrido[3′,4′:4,5]pyrrolo[1,2,3-de]quinoxalin-8-yl)-butan-1-one]			
